Experiments:
[1] = system: Hut78 cells; assay: Flow cytometry, propidium iodide DNA content (sub-G1); assay type: cell-based; conditions: for sub-G1 cells, dose dependence: 0.5×-2×IC50, 72 h; for sub-G1 cells, time dependence: 1×IC50, 16, 24, 48 or 72 h
Procedure: (§1) Hut78 cells were seeded in 10 cm plates at approximately 5×10^5 cells/plate and left to settle for 2 h. […] After treatment, cells were harvested and cell cycle analysis was carried our. Cells were pelleted by centrifugation, washed twice in PBS and then fixed overnight in 70% (v/v) ethanol at −20° C. Cells were stained with 50 μg/ml propidium iodide for 20 min and the DNA content analysed on the flow cytometer. Annexin V staining was performed as indicated in manufacturer's instructions, on live, non-fixed cells.
After drug treatment, cells were then harvested, stained with propidium iodide and their DNA content analysed by flow cytometry.
After treatment, cells were then harvested, stained with propidium iodide and their DNA content analysed by flow cytometry.

[2] = system: Hut78 cells; assay: 72 h IC50 by Alamar blue assay in Hut78; assay type: cell-based; conditions: read-out: 1×IC50 value in Hut78 cells
Procedure: Experiments were carried out in 96-well plates and the cell lines seeded at a density of 2500/well for H1299, 2500/well or 3000/well for H460, 5000/well for HL-60 cells, and 8,000 cells/well for Hut78, MV4-11 and PL-21 cells. […] Each compound was then tested in combination with CNDAC using three different treatment regimes: concomitant, CNDAC pre-treatment followed by HDAC inhibitor/topoisomerase inhibitor and CNDAC treatment after pre-treatment with HDAC inhibitor/topoisomerase inhibitor.

[3] = system: Hut78 cells; assay: Flow cytometry, Annexin V staining; assay type: cell-based; conditions: IC50, 24 h, 48 h or 72 h
Procedure: as §1
Cells were then harvested, stained with annexin V and analysed on the flow cytometer. Data are representative of two independent experiments. Annexin V labels live cells that are undergoing apoptosis or already dead. […] The synergy detected in the calcusyn analysis (Table 1) is therefore likely to be mainly due to inhibition of cell proliferation.

[4] = system: Hut78 cells; assay: Western blotting analysis in Hut78 cells; assay type: cell-based; conditions: 1×IC50, western blot
Procedure: Protein lysates were generated from 10 cm plates that were seeded at approximately 5×10^5 cells/well, in medium containing 10% FCS. […] Cells were collected by centrifugation (5 min×2,000 g), washed once with ice-cold buffer A (50 mM HEPES, pH 7.0, 20 mM NaCl, 1 mM DTT, protease inhibitors, 10 mM Sodium pyrophosphate, 10 mM Sodium Fluoride and 1 mM Sodium Orthovanadate), and resuspended in 0.3 ml of the same buffer. Cells were lysed by sonication (2×3 s bursts with probe sonicator), and the protein concentration of each tube determined using the BCA assay. Lysates (20-30 μg protein loaded/well) were resolved on Bis-Tris gels containing 10 or 12% acrylamide and transferred to nitrocellulose for analysis by western blotting. Membranes were blocked for 1 h at room temperature in PBS containing 0.02% (v/v) Tween 20 and 5% (w/v) fat-free dried milk. Antibody incubations were carried out overnight at 2-8° C. in PBS containing 0.02% (v/v) Tween 20 (PBST) containing 3% (w/v) dried milk. Nitrocellulose membranes were probed with the following antibodies:
Membranes were then washed three times in PBST, and then incubated for 1 h with the appropriate horseradish peroxidase-conjugated secondary antibody (Perbio) at 1:5,000 dilution. Finally, the membranes were washed three times in PBST prior to development using an enhanced chemiluminescence kit (Amersham Corporation, Buckinghamshire, U.K.) or the Millipore Immobilon HRP substrate.
Cells were harvested and the resulting cell lysates analysed by western blotting with the indicated antibodies. Data are representative of two independent experiments (FIG. 5). […] Homologous recombination is one of the major repair pathways for double strand DNA breaks, and RAD51 plays a key role in homologous recombination.

[5] = system: p388 mouse leukaemia; assay: p388 mouse leukaemia xenograft, survival; assay type: in vivo; conditions: P388 mouse model; CYC682 20 mg/kg PO QD×5×2, SAHA 75 mg/kg IP QD×12; compared to vehicle control
Description: The p388 mouse leukaemia xenograft assesses drug combinations by the survival times of the mice in the various treatment arms.

[6] = system: H358 cells; assay: H358 xenograft tumour growth; assay type: in vivo, mice (nu/nu); conditions: for mean tumour volume: day 22, sapacitabine 15 mg/kg oral, irinotecan 50 mg/kg i.p. weekly, SAHA 50 mg/kg oral
Procedure: Female mice (nu/nu) were obtained from Harlan. Animals were injected subcutaneously with ˜1×10^7 H358 cells/mouse at a single site on their flanks. Tumours were allowed to grow to ˜127 mm^3 before being pair-matched by tumour size into treatment groups (10 mice/group). One group was treated with sapacitabine (15 mg/kg) once daily by oral gavage for five consecutive days followed by a two day break; the treatment was then repeated for a total of three cycles. Irinotecan (50 mg/kg) was treated once weekly by intraperitoneal injection for three weeks. […] Mice were weighed at least twice a week to assess toxicity of the treatments and the tumours were measured with calipers at least twice a week to determine tumour growth. The tumour measurements were converted into volumes using the formula: tumour volume (mm^3)=width^2 (mm)×length (mm)×0.52. The percent tumour growth inhibition was determined with the formula: 1−(Change in treated tumour volume/change in control tumour volume)×100%. Statistical significance was determined using a two sided unpaired Student's T-test.

[7] = system: colon cancer; conditions: model of colon cancer, cited from earlier work
[8] = human, in vivo; cited from earlier work

N#C[C@H]1[C@H](O)[C@@H](CO)O[C@H]1n1ccc(N)nc1=O [CNDAC, 1-(2-C-cyano-2-deoxy-β-D-arabino-pentafuranosyl)-cytosine]
sub-G1 cells, dose dependence [1]: dose-dependent increase in sub-G1 cells | sub-G1 cells, time dependence [1]: time-dependent increase in sub-G1 cells that became apparent by 48 h treatment | sub-G1 cells, share of the cell population ([1]; 1×IC50, by 72 h): ~30% | IC50 [2]: 360 nM | apoptotic/dead cells (annexin V) [3]: time-dependent increase in apoptotic/dead cells | H2A.X phosphorylation at serine 139 [4]: increase in H2A.X phosphorylation at serine 139 | Mcl-1 [4]: decrease in Mcl-1

O=C(CCCCCCC(=O)Nc1ccccc1)NO [SAHA, suberoylanilide hydramic acid, reference compound]
survival [5]: very little effect on survival | sub-G1 cells, dose dependence [1]: little effect on the cell cycle, except at 2×IC50, where it induced a small increase in sub-G1 cells | sub-G1 cells, time dependence [1]: small increase in sub-G1 cells | apoptotic/dead cells (annexin V) [3]: negligible increase in dead/dying cells | effect on tumour growth (in words) ([6]; day 22): no effect on tumour growth | mean tumour volume [6]: 517 mm^3 | Acetyl-histone H4 [4]: increase in Acetyl-histone H4

CCc1c2c(nc3ccc(OC(=O)N4CCC(N5CCCCC5)CC4)cc13)-c1cc3c(c(=O)n1C2)COC(=O)[C@]3(O)CC [irinotecan]
tumour growth inhibition (% TGI) ([6]; day 22): ~75%

CCCCCCCCCCCCCCCC(=O)Nc1ccn([C@@H]2O[C@H](CO)[C@@H](O)[C@@H]2C#N)c(=O)n1 [sapacitabine, 2′-cyano-2′-deoxy-N^4-palmitoyl-1-β-D-arabinofuranosylcytosine]
survival [5]: significant increase in the survival time | anticancer activity [7]: strong anticancer activity | increasing survival and preventing the spread of colon cancer metastases to the liver ([7]; versus gemcitabine or 5-FU): superior to either gemcitabine or 5-FU | tolerability, dose limiting toxicity [8]: well tolerated in humans, with myelosuppression as the dose limiting toxicity | tumour growth inhibition (% TGI) ([6]; day 22): ~75% | mean tumour volume [6]: 229 mm^3

Source: patent US8349792B2, “Combination comprising CNDAC (2′-cyano-2′-deoxy-N4-palmitoyl-1-beta-D-arabinofuranosyl-cytosine) and a cytotoxic agent” (priority 2006, dated 2013)
